Reference: patent US20240252418A1, “Additives (Adjuvants, Anti Freezing Agents, Antimicrobial and Antioxidants) in Natural Deep Eutectic Solvents and Mixtures” (Bioeutectics Corporation, priority 2023, published 2024)

How the values were obtained:
[1] = Solubility test for common agro actives; conditions: 14% w/w analyte/solvent, 30° C., vortex and ultrasound
Method: Solubility test (for common agro actives) was carried out at the working concentration of 14% w/w analyte/solvent, initially in traditional solvents and then in our selected solvents, at 30° C. and assisted by vortex and ultrasound.

[2] = Evaporation time measurements; assay type: physicochemical; conditions: 5 μL drop of 1% solution in H2O, glass slide, room temperature
Method: Evaporation time was analyzed after applying 5 μL (one drop) of a 1% solution in water, on a glass slide at room temperature.

[3] = Wetted area on a paper sheet (mixture systems with TX); assay type: physicochemical
Method: (§1) A general procedure was developed to evaluate the wetted area of droplets. The test system was prepared with 1% of the eutectic products in water, and a miscible dye, which allowed the visualization of the wetted area droplets. To compare the ability of the pure systems to a known adjuvant, TX (Triton X-100), a nonionic surfactant that has a hydrophilic polyethylene oxide chain with, on average, 9.5 ethylene oxide units) was used and was prepared under the same conditions and compared with a water/dye blank.
With the results from the pure systems on paper and a waxy leaf shown in tables 1 and 2, a subsequent test was performed wherein mixtures of the products of the present invention with TX were compared on a paper sheet. Mixtures comprising TX and the products under study were evaluated at 0.9, 0.75, 0.50, 0.25, and 0.10% (1% total concentration). […] Compared to TX/water, the mixture with TX/BOA (50/50%) increased the wetted area by around 190%, systems with TX/BOA and TX/BOA (75/25%) increased the wetted area by around 180%, while TX/BOA (25/75%) increased the wetted area by around 150% (see Table 3).

[4] = Wetted area of droplets on a paper sheet (pure systems); assay type: physicochemical; conditions: 5 μL drop
Method: as §1

[5] = tested on: waxy leaves of Epipremnum aureum; assay: Wetted area of droplets on waxy leaves; assay type: physicochemical
Method: as §1
In a subsequent experiment, the wetted area of droplets was tested on waxy leaves of Epipremnum aureum. The quantitative results of those tests appear in Table 2.

[6] = Component A TX 0.1% + Component B 0.9%
[7] = Component A TX 0.25% + Component B 0.75%
[8] = Component A TX 0.5% + Component B 0.5%
[9] = Component A TX 0.75% + Component B 0.25%
[10] = Component A TX 0.9% + Component B 0.1%

| Compound | Solubility in the selected solvents [1] | Evaporation time [2] | The relative evaporation time with reference to TX (min) [2] | Area [3, 6] | Relative size (%) with reference to TX/H2O [3, 6] | Area [3, 7] | Relative size (%) with reference to TX/H2O [3, 7] | Area [3, 8] | Relative size (%) with reference to TX/H2O [3, 8] | Area [3, 9] | Relative size (%) with reference to TX/H2O [3, 9] | Area [3, 10] | Relative size (%) with reference to TX/H2O [3, 10] | Relative size (%) with reference to H2O ([4]; 1% in water) | Relative size (%) with reference to TX ([4]; 1% in water) | Area ([4]; 1% in water with dye) | Relative size (%) with reference to H2O [5] | Relative size (%) with reference to TX [5] |
| --- | --- | --- | --- | --- | --- | --- | --- | --- | --- | --- | --- | --- | --- | --- | --- | --- | --- | --- |
| CCNc1nc(Cl)nc(NC(C)(C)C)n1 [Terbutylazine] | Soluble in 9 of our tested solvents |  |  |  |  |  |  |  |  |  |  |  |  |  |  |  |  |  |
| Triton X-100 [TX] |  | 19.73 min | 1.00 | 18.05 mm^2 | 100.00% | 18.99 mm^2 | 100.00% | 17.78 mm^2 | 100.00% | 17.84 mm^2 | 100.00% | 15.81 mm^2 | 100.00% | 424.82% | 100.00% | 23.98 mm^2 | 333.18% | 100.00% |
